Values quoted from earlier work, collected in patent publication US20130323309A1, “Sustained Release Composition of Memantine” (LUPIN LIMITED, priority 2011, published 2013).

Details: aqueous media and polar solvents; memantine or a pharmaceutically acceptable salt

## CC12CC3CC(C)(C1)CC(N)(C3)C2 [Memantine, 1-amino-3,5-dimethyladamantane]
  Solubility: highly soluble
